What all share (format): in vivo
Experiment [1] relates to common sowthistle (Sonchus oleraceous). As to the kind of experiment: Test G pre/postemergence. The method in brief: (§1)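 Test chemicals in a non-phytotoxic solvent blend with surfactant are applied to soil after seeding or to foliage of 2–18 cm seedlings. Greenhouse response is scored visually at 12–21 days on a 0 to 100 control scale.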
In experiment [2] the test system is purple nutsedge (Cyperus rotundus). As to the kind of experiment: Test G pre/postemergence. The method in brief:
as §1

Experiment [3] concerns spanishneedles (Bidens bipinnata). Kind of experiment: Test G pre/postemergence. The method in brief:
as §1

Experiment [4] deals with sugarcane (Saccharum officinarum). Kind of experiment: Test G sugarcane pre/postemergence. The note with it: Postemergence, scale 0 to 100. From the text: Also at a different time, seed pieces (nodes) of sugarcane (Saccharum officinarum) were planted and treated preemergence and/or postemergence with some of the test chemicals formulated in the same manner. Treated plants and controls were maintained in a greenhouse for 14 days, after which time the treated plants were compared to controls and visually evaluated.
(§2) Plant response ratings, summarized in Table G, are based on a scale of 0 to 100 where 0 is no effect and 100 is complete control. A dash (-) response means no test result.

In experiment [5] the test system is sulfonylurea herbicide-resistant (SU-resistant) catchweed bedstraw (GALAP; Galium aparine). As to the kind of experiment: Test K postemergence. Particulars: 15 days. On the procedure:
(§3) Seeds of plant species selected from sulfonylurea herbicide-susceptible (SU-susceptible) and sulfonylurea herbicide-resistant (SU-resistant) catchweed bedstraw (GALAP; Galium aparine) and wheat (TRZAW; Triticum aestivum) were treated with postemergence applications of test chemicals formulated in a non-phytotoxic solvent mixture which included a surfactant. Plants were treated at the 2-3 leaf stage and 2 whorl stage for wheat and catchweed bedstraw, respectively. Treated plants and controls were maintained in a controlled growth environment for 15 days after which time all species were compared to controls and visually evaluated. Plant response ratings, summarized in Table K, are based on a scale of 0 to 100 where 0 is no effect and 100 is complete control. A dash (-) response means no test result.

Experiment [6] relates to sulfonylurea herbicide-susceptible (SU-susceptible) catchweed bedstraw (GALAP; Galium aparine). As to the kind of experiment: Test K postemergence. The note with it: 15 days. On the procedure:
as §3

Experiment [7] has as its system wheat (TRZAW; Triticum aestivum). As to the kind of experiment: Test K postemergence. The note with it: 15 days. The method, then: as §3
In experiment [8] the test system is grape (Vitus vinifera) vines. Kind of experiment: Test G post-directed application. The note with it: 1500 g ai/ha, scale 0 to 100. The method, then: (§4) At a different time, established container-grown grape (Vitus vinifera) vines, and olive (Olea europaea) and orange (Citrus sinensis) trees were treated with some of the test chemicals formulated in the same manner and applied to the soil surface and the lower 5 cm of the plant vines or trunks (post-directed application). Plants ranged in height from 30 to 100 cm. The applications were made using a hand sprayer delivering a volume of 990 L/ha. Treated plants and controls were maintained in a greenhouse for 28 days, after which time the treated plants were compared to controls and visually evaluated.
as §2

For experiment [9], the system named is olive (Olea europaea) trees. Kind of experiment: Test G post-directed application. The note with it: 900 g ai/ha, scale 0 to 100. The method, then: as §4, §2
Experiment [10] relates to orange (Citrus sinensis) trees. As to the kind of experiment: Test G post-directed application. Particulars: 1500 g ai/ha, scale 0 to 100. The method, then: as §4, §2
Setting [11] is: Postemergence, 250 g ai/ha, scale 0 to 100.
[12] abbreviates: Postemergence, 16 g ai/ha, scale 0 to 100.
Setting [13] is: Postemergence, 31 g ai/ha, scale 0 to 100.
The mark [14] stands for this setting: Postemergence, 62 g ai/ha, scale 0 to 100.
[15] abbreviates: Postemergence, 125 g ai/ha, scale 0 to 100.
[16] abbreviates: Preemergence, 16 g ai/ha, scale 0-100.
Setting [17] is: Preemergence, 31 g ai/ha, scale 0-100.
The mark [18] stands for this setting: Preemergence, 62 g ai/ha, scale 0-100.
[19] abbreviates: Preemergence, 125 g ai/ha, scale 0-100.
The mark [20] stands for this setting: Preemergence, 250 g ai/ha, scale 0-100.
Where [21] appears, read: Postemergence, 8 g ai/ha, scale 0 to 100.
Setting [22] is: Preemergence, 8 g ai/ha, scale 0-100.
Setting [23] is: Preemergence, 500 g ai/ha, scale 0 to 100.

With `Nc1nc(C2CC2)nc(C(=O)[O-])c1Cl.[Na+]` [Compound 77, 6-amino-5-chloro-2-cyclopropyl-4-pyrimidinecarboxylic acid monosodium salt], the “Plant response rating, Sowthistle” value came out at 95 in experiment [1] (setting [11]); 75 in [1] (setting [12]); 90 in experiment [1] (setting [13]); 90 in experiment [1] (setting [14]); 95 in experiment [1] (setting [15]); 80 in experiment [1] (setting [16]). Moreover, the “Plant response rating, Sowthistle” value in experiment [1] (setting [17]), in experiment [1] (setting [18]), in [1] (setting [19]) and in experiment [1] (setting [20]) was 100 throughout. Moreover, the “Plant response rating, Nutsedge, Purple” value in [2] (setting [11]) was 40; in [2] (setting [12]), 0; in experiment [2] (setting [13]), 0; in experiment [2] (setting [14]), 0; in experiment [2] (setting [15]), 0; in experiment [2] (setting [16]), 100. Further, the “Plant response rating, Nutsedge, Purple” value in experiment [2] (setting [17]), in [2] (setting [18]), in [2] (setting [19]) and in [2] (setting [20]) was 100 throughout. Also, the “Plant response rating, Spanishneedles” value in experiment [3] (setting [11]) is on record as 98; in experiment [3] (setting [12]), 75; in [3] (setting [13]), 95; in experiment [3] (setting [14]), 98; in [3] (setting [15]) it was 98.

Consider `CCOC(=O)c1nc(-c2ccc(Cl)cc2)nc(N)c1Cl` [Compound 64, ethyl 6-amino-5-chloro-2-(4-chlorophenyl)-4-pyrimidinecarboxylate], for which the “Plant response rating, Sowthistle” value in experiment [1] (setting [21]) is on record as 65; in experiment [1] (setting [12]) it was 80; in experiment [1] (setting [13]), 80; in experiment [1] (setting [14]), 80; in [1] (setting [22]), 0; in experiment [1] (setting [16]), 0. The “Plant response rating, Sowthistle” value in [1] (setting [17]) was 35; in experiment [1] (setting [18]) it was 90. Further, the “Plant response rating, Nutsedge, Purple” value in experiment [2] (setting [21]) is 0; in experiment [2] (setting [12]) it was 35; in [2] (setting [13]) it was 35; in experiment [2] (setting [14]), 35; in [2] (setting [22]), 0; in [2] (setting [16]), 0. The “Plant response rating, Nutsedge, Purple” value in experiment [2] (setting [17]) and in [2] (setting [18]) was 0 throughout. Besides, the “Plant response rating, Spanishneedles” value is listed as 65 in experiment [3] (setting [21]); 75 in [3] (setting [12]); 90 in [3] (setting [13]); 90 in [3] (setting [14]); 0 in experiment [3] (setting [22]); 0 in experiment [3] (setting [16]). Further, the “Plant response rating, Spanishneedles” value in [3] (setting [17]) worked out at 0; in [3] (setting [18]), 35.

Consider `Nc1nc(C2CC2)nc(C(=O)OCc2ccccc2)c1Br` [Compound 22, phenylmethyl 6-amino-5-bromo-2-cyclopropyl-4-pyrimidinecarboxylate], for which the “Plant response rating, Sowthistle” value was 100 in experiment [1] (setting [11]); 75 in experiment [1] (setting [12]); 85 in experiment [1] (setting [13]); 95 in experiment [1] (setting [14]); 100 in experiment [1] (setting [15]); 35 in experiment [1] (setting [16]). In addition, the “Plant response rating, Sowthistle” value in [1] (setting [17]) was found to be 75; in experiment [1] (setting [18]), 90; in [1] (setting [19]), 100; in experiment [1] (setting [20]), 100. Besides, the “Plant response rating, Nutsedge, Purple” value in experiment [2] (setting [11]) is 15; in [2] (setting [12]), 0; in experiment [2] (setting [13]) it was 0; in experiment [2] (setting [14]), 0; in experiment [2] (setting [15]), 0; in experiment [2] (setting [16]), 0. Moreover, the “Plant response rating, Nutsedge, Purple” value turned out to be 0 in experiment [2] (setting [17]), 30 in experiment [2] (setting [18]), 40 in experiment [2] (setting [19]) and 50 in experiment [2] (setting [20]).

`COC(=O)c1nc(C2CC2)nc(N)c1Cl` [Compound 9, methyl 6-amino-5-chloro-2-cyclopropyl-4-pyrimidinecarboxylate]: the “Plant response rating, Spanishneedles” value in experiment [3] (setting [18]), in experiment [3] (setting [19]), in experiment [3] (setting [20]) and in experiment [3] (setting [23]) was 100 each time. The “Plant response rating, Sugarcane” value in [4] (250 g ai/ha) stood at 7; in experiment [4] (500 g ai/ha), 17; in experiment [4] (31 g ai/ha), 0; in experiment [4] (62 g ai/ha) it was 0; in experiment [4] (125 g ai/ha), 0. For the same compound, the “Plant response rating (0 to 100 scale)” value in experiment [5] (4 g a.i./ha), in experiment [5] (8 g a.i./ha), in experiment [5] (16 g a.i./ha), in experiment [5] (31 g a.i./ha), in experiment [5] (62 g a.i./ha) and in [5] (125 g a.i./ha) was 100 each time. Further, the “Plant response rating (0 to 100 scale)” value was 75 in experiment [6] (4 g a.i./ha); 100 in [6] (8 g a.i./ha); 100 in [6] (16 g a.i./ha); 100 in experiment [6] (31 g a.i./ha); 100 in [6] (62 g a.i./ha); 100 in [6] (125 g a.i./ha). Besides, the “Plant response rating (0 to 100 scale)” value in experiment [7] (4 g a.i./ha) was found to be 0; in experiment [7] (8 g a.i./ha) it was 20; in experiment [7] (16 g a.i./ha), 25; in experiment [7] (31 g a.i./ha) it was 38; in [7] (62 g a.i./ha) it was 38; in experiment [7] (125 g a.i./ha) it was 40.

With `CCOC(=O)c1nc(C2CC2)nc(N)c1Cl` [Compound 4, ethyl 6-amino-5-chloro-2-cyclopropyl-4-pyrimidinecarboxylate], the “Plant response rating, Sowthistle” value in [1] (setting [18]), in experiment [1] (setting [19]), in experiment [1] (setting [20]) and in experiment [1] (setting [23]) was 100 each time. For the same compound, the “Plant response rating, Nutsedge, Purple” value was found to be 40 in experiment [2] (setting [18]), 100 in experiment [2] (setting [19]), 100 in experiment [2] (setting [20]) and 100 in [2] (setting [23]). Besides, the “Plant response rating, Spanishneedles” value in [3] (setting [18]), in experiment [3] (setting [19]), in [3] (setting [20]) and in experiment [3] (setting [23]) was 100 each time. For the same compound, in experiment [8], the “Plant response rating, Grape” value was 100. The “Plant response rating, Olive” value in experiment [9] turned out to be 50. In experiment [10], the “Plant response rating, Orange” value was determined as 75.

Values taken from patent US8802597B2, “Herbicidal pyrimidines” (E I du Pont de Nemours and Company, priority 2003, dated 2014).
